One data set concerns H358 lung cancer cells. Description: 96-well MTS cell viability assay. Type of data set: cell-based. As for the experimental part: Control cells were left untreated. […] Control cells were left untreated.
Cells were given fresh inhibitor on the first, second, and third days of treatment and viability was measured on the 4th day (i.e. 3 days post start of treatment).
(A) Structure of compound 2a. […] Averages of duplicate samples with standard deviations are shown.
(A) Structure of Spd-3a. (B) Western analysis of histone H3K9-acetylation and total histone H3, measured in control, untreated H358 lung cancer cells “C’ or in H358 cells incubated 12 hours in the presence of 50 μM Spd-2a or Spd-3a. Each lane represents 60 μg cellular protein. (C) [3H]-thymidine incorporation (counts per minute) into DNA of H358 cells during a 6 hour pulse beginning at 42 hours post-start of treatment. Treatments were as follows (bars 1-6 left to right): (1) control: no treatment; (2) CPT alone: 5 nM 18 hours; (3) 3a alone: 50 μM; (4-6) 3a+CPT: CPT (5 nm, 18 hours)+3a at indicated dose. After 18 hours, CPT was removed and medium was replaced with fresh medium containing Spd-3a at the indicated dose. Each bar represents the average of triplicates. (D) 3-day 96-well viability assay of H358 cells grown in the presence of increasing amounts of Spd-2a or Spd-3a, with or without CPT (5 nM 18 hours). […] Each data point represents the average of three wells.
Cells were plated in 96-well plates at 2000 cells per well and treated with the indicated doses of spd-3a. Cell viability was measured by the MTS assay 3 days later.
DLD-1 cells or H358 cells were plated in 96-well plates at 2000 cells per well and treated with the indicated doses of (A) spm-3 or (B) spm-2. (C) Cell viability was measured by the MTS assay 3 days later. Similar experiment using GT41 fibroblasts with spm2 or spm 3. Each assay point represents an average of duplicates.
Control cells received neither 1a nor camptothecin.
After overnight attachment, triplicate wells were treated with increasing concentrations of inhibitor 1a or 1b. Control wells were left untreated. One day later, and again 2 days later, the medium in the wells was removed and replaced with fresh medium containing 1a or 1b.
On the technique in general: Tetrazolium dyes change colour on reduction, which living cells bring about.

For data set [1], the system named is BT20 breast cancer cell line (TNBC). Kind of data set: 3-day viability assay. The data set is classed as cell-based. The following applies: spd-2a increasing doses; camptothecin 5 nM. The text has this: The effect of spd-2a on the BT20 breast cancer cell line derived form a spontaneous TNBC with wild-type BrCal was examined. […] Having previously established that spd-2a is a therapy sensitizer, the present inventors then examined the combined effects of spd-2a and camptothecin (the basis for the chemotherapeutic drug, Irinotecan).

The target of another data set is T1, p300 catalytic domain (Homo sapiens, UniProt Q09472).
T1 construct: the catalytic domain of p300(965-1810); purchased Active Motif, Carlsbad, Calif
T1 sequence (Q09472 965-1810): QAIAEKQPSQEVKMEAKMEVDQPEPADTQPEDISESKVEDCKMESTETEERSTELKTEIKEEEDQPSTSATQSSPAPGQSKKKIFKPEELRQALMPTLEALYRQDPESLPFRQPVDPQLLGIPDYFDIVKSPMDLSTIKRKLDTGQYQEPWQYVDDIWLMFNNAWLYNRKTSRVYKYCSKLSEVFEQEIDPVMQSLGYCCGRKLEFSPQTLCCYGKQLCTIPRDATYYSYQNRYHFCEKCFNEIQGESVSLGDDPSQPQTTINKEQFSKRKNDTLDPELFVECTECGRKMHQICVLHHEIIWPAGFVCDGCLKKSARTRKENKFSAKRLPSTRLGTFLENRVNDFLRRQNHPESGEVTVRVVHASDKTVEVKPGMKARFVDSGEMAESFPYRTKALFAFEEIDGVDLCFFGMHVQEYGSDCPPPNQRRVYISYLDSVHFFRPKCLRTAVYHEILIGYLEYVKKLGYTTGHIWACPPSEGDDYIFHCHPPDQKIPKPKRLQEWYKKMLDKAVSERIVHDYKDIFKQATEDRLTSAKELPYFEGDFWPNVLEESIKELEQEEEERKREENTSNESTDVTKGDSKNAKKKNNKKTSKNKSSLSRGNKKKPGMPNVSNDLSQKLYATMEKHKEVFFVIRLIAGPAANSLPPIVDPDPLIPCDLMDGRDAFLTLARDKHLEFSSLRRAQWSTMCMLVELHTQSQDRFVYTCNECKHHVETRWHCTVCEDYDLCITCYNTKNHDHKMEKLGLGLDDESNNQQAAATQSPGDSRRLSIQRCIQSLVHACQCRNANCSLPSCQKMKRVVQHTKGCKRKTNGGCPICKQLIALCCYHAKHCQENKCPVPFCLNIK
Kind of data set: fluorescent HAT assay kit (Active Motif), 96-well. The data set is classed as biochemical. As for the experimental part: (A) Structures of compound 1a (spermidine CoA), and the acetylated side chain of a lysine residue of a polypeptide chain. (B) Inhibition of p300 acetylating activity as a function of 1a concentration. The catalytic domain of recombinant p300 (1284-1660) was assayed under steady state conditions using an N-terminal acetylated histone H4 peptide substrate, Ac-H4(1-19)-NH2. Closed circles represent experimental data points; plain line represents theoretical profile based on data reduction software (Prism) using a one site inhibition model. (C) In vitro assay of p300 activity using a 96-well assay kit (ActivMotif) and an H3 peptide substrate (5-23), according to manufacturer's instructions. Bars represent average of duplicates. […]
Reactions were set up in duplicate following the protocol supplied by the kit. […] Activity is measured in fluorescence units. […]
Assays were performed using the fluorescent HAT assay kit (Active Motif, Carlsbad, Calif.), an H3 peptide as substrate (residues 5-23), the p300 catalytic domain as enzyme, and 50 μM inhibitor in duplicate, according to the manufacturer's instructions. […] The reaction product, CoASH, was detected spectrophotometrically by reaction with 5,5′-dithiobis-2-nitrobenzoic acid (DTNB). Assays were carried out at 30° C. for 30 minutes, conditions which had previously been determined in kinetic assays to sufficient to achieve steady state.

In a further data set the test system is GT41F skin fibroblasts. Kind of data set: 96-well MTS viability assay. The data set is classed as cell-based, human. The following applies: 3 days; for sensitivity of normal fibroblasts compared with cancer cell lines: single agent.

As for `CC[C@@]1(O)C(=O)OCc2c1cc1n(c2=O)Cc2cc3ccccc3nc2-1` [camptothecin], the “2-day cumulative cell viability relative to untreated, single agent” value in the data set with H358 lung cancer cells (1a increasing concentrations, camptothecin 5 nM 18 hour) is reported as “no effect”. For the same compound, in data set [1], the “3-day viability, single agent” value is given as “no effect”.

As for `CC(=O)NCCSCC(=O)NCCCNCCCCNCCCN` [spm-3], the “p300 HAT inhibition in vitro” value on p300 catalytic domain (kit assay, 2a at 50 μM) is recorded as “HAT inhibitors”. Besides, the “3-day cell viability, single agent” value in the data set on H358 lung cancer cells (single agent) is listed as “effective as single agents”. Further, the “sensitivity of normal fibroblasts compared with cancer cell lines” value in the data set with GT41F skin fibroblasts was “sensitivity similar to that of H358 lung cancer cells”.

For the compound `CC(=O)NCCSCC(=O)NCCCNCCCCN` [3a], in the data set on H358 lung cancer cells (3a + CPT 5 nM 18 hours), the “suppression of 3-day cell viability in combination with camptothecin” value is “effective”. Also, in the data set on GT41F skin fibroblasts, the “sensitivity of normal fibroblasts compared with cancer cell lines” value was “less sensitive”. In the data set with GT41F skin fibroblasts (spd-3a 1 μM), this compound returned a cell viability retained of roughly 60%.

Turning to `CC(C)(COP(=O)(O)OP(=O)(O)OC[C@H]1O[C@@H](n2cnc3c(N)ncnc32)[C@H](O)[C@@H]1OP(=O)(O)O)[C@@H](O)C(=O)NCCC(=O)NCCSCC(=O)NCCCNCCCCN` [1a, spermidine[N1]-CoA], the “suppression of p300HAT-mediated incorporation of acetyl groups relative to control enzyme” value at p300 catalytic domain (50 μM inhibitor, H3 peptide substrate, FIG. 1C) is listed as 88%. Besides, in the data set on H358 lung cancer cells (5 nM camptothecin + increasing concentrations of 1a), the “2-day cell viability, % of untreated cell viability” value is given as “less than 10%”.

These data come from patent publication US9107879B1, “Methods of increasing the cytotoxicity of chemotherapeutic agents with multisubstrate inhibitors of histone, protein-lys, polyamine acetylation, and polyamine metabolism” (Vanderbilt University, priority 2010, dated 2015).
